Patent US20230279001A1, “IMIDAZO[1,2-A]PYRIDINE COMPOUNDS FOR THE TREATMENT OF AUTOIMMUNE DISEASE” (Hoffmann-La Roche Inc., priority 2020, published 2023)

Key:
[1] = Parallel Artificial Membrane Permeability Assay (PAMPA); format: in vitro ADME; conditions: for Membrane Retention / Papp at 4 h: PAMPA, pH 7.40, 4 hours; for Papp at 4 h: pH 7.4, room temperature, read-out: PAMPA Pe; for PAMPA category: classified by Pe and membrane retention
Description: PAMPA (Parallel Artificial Membrane Permeability Assay) is a first-line permeability screen for drug candidates. This assay mimics the transcellular absorption conditions using an artificial phospholipid membrane and generates a permeability value that can be used for compound ranking and optimization as well as input parameters for in silico models to predict intestinal absorption.
Permeation experiments are carried out in hydrophobic PVDF 96-well microtiter filter plates (MultiScreen Filter Plate, Millipore, #MAIPN4550). Each well is coated with PVDF membrane, which is prepared with 5 μL Dodecane (Sigma, D221104) that contains 1% lecithin (Sigma, P3556-1G).
The typical PAMPA experimental protocol is as follows: The donor plate is placed on a Teflon acceptor plate that has been pre-filled with […] of 100 mM PBS buffer (2.6 g KH2PO4 and 18.5 g K2HPO4·3H2O are dissolved in about 1000 mL of ultra-pure water and mixed thoroughly. The pH is adjusted to 7.40±0.05, using either 1 M sodium hydroxide or 1M hydrochloric acid) containing 5% DMSO. The filter on the bottom of each acceptor well is filled with 300 μL of 100 mM PBS buffer (2.6 g KH2PO4 and 18.5 g K2HPO4·3H2O are dissolved in about 1000 mL of ultra-pure water, mixed thoroughly. The pH was adjusted to 7.40±0.05, using either 1 M sodium hydroxide or 1M hydrochloric acid). The resulting sandwich is incubated at room temperature under constant shaking (300 rpm) for 4 hours. The sandwich is then disassembled. Before incubation, spike 20 μL dosing solution and mix with 250 μL PBS and 130 μL quench solution (acetonitrile) as TO sample. After incubation, collect 270 μL solutions from acceptor chamber, followed by the addition of 130 μL acetonitrile. Collect 20 μL solution from donor chamber and add 250 μL PBS and 130 μL acetonitrile. The concentration of compound in all samples are determined by LC-MS/MS and the equations for determining the permeability (Pe, 10^−6 cm/s) are as follows.
VD is the volume of the donor well; VR is the volume of the acceptor well; Area is the active surface area of membrane; Time is the incubation time (14,400 s in this assay); CR and CD are the concentrations of compound in acceptor and donor solutions, respectively, at the completion of the assay; C0 is the concentration of compound in donor solution before incubation.
The main readout of the PAMPA assay is the permeability value Pe expressed in 10^−6 cm/s. Secondary readouts determined are the amounts of compound in the donor and acceptor compartments as well as compound retention in the membrane. Depending on the permeation rate and the membrane retention, compounds are classified as “low” (Pe<0.2 and membrane retention<20%) or “medium & high” (Pe>=0.2; or Pe<0.2 and membrane retention>=20%). Each sample is measured in triplicate; the standard deviation is determined for the permeation constant Pe.

TLR9 = TLR9 (Homo sapiens (Human), UniProt Q9NR96); assay: HEK293-Blue-hTLR-9 cells assay; format: cell-based; conditions: HEK293-Blue-hTLR9 cells, ODN2006 stimulation, 20 hrs, SEAP reporter; read-out: HEK/hTLR9 IC50
Source text: A stable HEK293-Blue-hTLR-9 cell line was purchased from InvivoGen (Cat. #: hkb-htlr9, San Diego, Calif., USA). These cells were originally designed for studying the stimulation of human TLR9 by monitoring the activation of NF-κB. A SEAP (secreted embryonic alkaline phosphatase) reporter gene was placed under the control of the IFN-β minimal promoter fused to five NF-κB and AP-1-binding sites. The SEAP was induced by activating NF-κB and AP-1 via stimulating HEK-Blue hTLR9 cells with TLR9 ligands. Therefore the reporter expression was declined by TLR9 antagonist under the stimulation of a ligand, such as ODN2006 (Cat. #: tlr1-2006-1, Invivogen, San Diego, Calif., USA), for incubation of 20 hrs. The cell culture supernatant SEAP reporter activity was determined using QUANTI-Blue™ kit (Cat. #: rep-qb1, Invivogen, San Diego, Calif., USA) at a wavelength of 640 nm, a detection medium that turns purple or blue in the presence of alkaline phosphatase.
HEK293-Blue-hTLR9 cells were incubated at a density of 250,000˜450,000 cells/mL in a volume of 170 μL in a 96-well plate in Dulbecco's Modified Eagle's medium (DMEM) containing 4.5 g/L glucose, 50 U/mL penicillin, […], 2 mM L-glutamine, 10% (v/v) heat-inactivated fetal bovine serum with addition of 20 μL test compound in a serial dilution in the presence of final DMSO at 1% and 10 μL, of 20 uM ODN2006 in above DMEM, perform incubation under 37° C. in a CO2 incubator for 20 hrs. Then 20 μL of the supernatant from each well was incubated with 180 μL, Quanti-blue substrate solution at 37° C. for 2 h and the absorbance was read at 620655 nm using a spectrophotometer. The signaling pathway that TLR9 activation leads to downstream NF-κB activation has been widely accepted, and therefore similar reporter assay was modified for evaluating TLR9 antagonist.

Sequence of TLR9 (Q9NR96 26-1032): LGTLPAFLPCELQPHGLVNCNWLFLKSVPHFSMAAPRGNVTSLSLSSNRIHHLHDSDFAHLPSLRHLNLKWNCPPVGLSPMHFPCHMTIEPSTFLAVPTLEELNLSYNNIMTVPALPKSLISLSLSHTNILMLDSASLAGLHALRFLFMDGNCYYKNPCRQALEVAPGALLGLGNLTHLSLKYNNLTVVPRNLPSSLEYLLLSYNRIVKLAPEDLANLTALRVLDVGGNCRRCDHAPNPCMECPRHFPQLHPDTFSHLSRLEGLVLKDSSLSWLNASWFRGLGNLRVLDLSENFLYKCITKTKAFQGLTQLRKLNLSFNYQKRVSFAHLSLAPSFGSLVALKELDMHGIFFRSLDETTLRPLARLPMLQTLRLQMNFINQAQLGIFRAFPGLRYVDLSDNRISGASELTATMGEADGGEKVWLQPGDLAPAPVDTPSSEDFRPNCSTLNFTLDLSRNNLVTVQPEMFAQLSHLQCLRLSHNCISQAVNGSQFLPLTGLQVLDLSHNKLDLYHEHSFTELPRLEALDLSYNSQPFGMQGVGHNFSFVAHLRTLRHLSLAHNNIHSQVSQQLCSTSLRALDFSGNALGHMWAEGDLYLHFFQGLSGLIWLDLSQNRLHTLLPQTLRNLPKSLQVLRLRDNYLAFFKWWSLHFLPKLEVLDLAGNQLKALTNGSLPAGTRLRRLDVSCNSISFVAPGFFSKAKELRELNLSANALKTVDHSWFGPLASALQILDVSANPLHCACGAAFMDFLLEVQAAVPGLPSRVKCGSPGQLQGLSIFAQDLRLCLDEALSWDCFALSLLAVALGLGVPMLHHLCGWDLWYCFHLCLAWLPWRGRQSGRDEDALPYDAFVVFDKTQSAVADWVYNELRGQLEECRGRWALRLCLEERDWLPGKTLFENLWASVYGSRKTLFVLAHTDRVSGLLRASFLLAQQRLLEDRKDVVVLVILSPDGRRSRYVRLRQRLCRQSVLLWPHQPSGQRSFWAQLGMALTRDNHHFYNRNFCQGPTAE

Membrane Retention [1]	Papp at 4 h [1]	IC50 (TLR9)	Compound	PAMPA category [1]
22.73%	0.87 ×10⁻⁶ cm/s	151 nM	Cc1cc(-c2ccc(N3CCC(N4CCNCC4)CC3)nc2C(C)C)cn2ccnc12 [Example 2, 6-[2-isopropyl-6-(4-piperazin-1-yl-1-piperidyl)-3-pyridyl]-8-methyl-imidazo[1,2-a]pyridine]	medium & high (“medium & high” (Pe>=0.2; or Pe<0.2 and membrane retention>=20%))
20.3%	0.8 ×10⁻⁶ cm/s	198 nM	Cc1cn2cc(-c3ccc(N4CCC(N5CCNCC5)CC4)nc3C(C)C)cc(C)c2n1 [Example 3, 6-[2-isopropyl-6-(4-piperazin-1-yl-1-piperidyl)-3-pyridyl]-2,8-dimethyl-imidazo[1,2-a]pyridine]	medium & high (“medium & high” (Pe>=0.2; or Pe<0.2 and membrane retention>=20%))
17.52%	1.2 ×10⁻⁶ cm/s	154 nM	Cc1cn2cc(-c3ccc(N4CCC(N)CC4)nc3C(C)C)cc(C)c2n1 [Example 4, 1-[5-(2,8-dimethylimidazo[1,2-a]pyridin-6-yl)-6-isopropyl-2-pyridyl]piperidin-4-amine]	medium & high (“medium & high” (Pe>=0.2; or Pe<0.2 and membrane retention>=20%))
17.82%	2.1 ×10⁻⁶ cm/s	227 nM	Cc1cn2cc(-c3ccc(N4CCNC[C@H]4CO)nc3C(C)C)cc(C)c2n1 [Example 5, [(2S)-1-[5-(2,8-dimethylimidazo[1,2-a]pyridin-6-yl)-6-isopropyl-2-pyridyl]piperazin-2-yl]methanol]	medium & high (“medium & high” (Pe>=0.2; or Pe<0.2 and membrane retention>=20%))
20.4%	1.2 ×10⁻⁶ cm/s	112 nM	Cc1c(-c2ccc(N3CCC(N4CCNCC4)CC3)nc2C(C)C)cn2ccnc2c1C [Example 7, 6-[2-isopropyl-6-(4-piperazin-1-yl-1-piperidyl)-3-pyridyl]-7,8-dimethyl-imidazo[1,2-a]pyridine]	medium & high (“medium & high” (Pe>=0.2; or Pe<0.2 and membrane retention>=20%))
34.49%	0.85 ×10⁻⁶ cm/s	294 nM	Cc1cn2cc(-c3ccc(N4CCN5CCNCC5C4)nc3C(C)C)cc(C)c2n1 (centres unmarked) [Example 8, 2-[5-(2,8-dimethylimidazo[1,2-a]pyridin-6-yl)-6-isopropyl-2-pyridyl]-1,3,4,6,7,8,9,9a-octahydropyrazino[1,2-a]pyrazine]	medium & high (“medium & high” (Pe>=0.2; or Pe<0.2 and membrane retention>=20%))
49%	0.88 ×10⁻⁶ cm/s	169 nM	Cc1cc(-c2cc(C)c3nccn3c2)cnc1N1CCC(N2CCN(C)CC2)CC1 [Example 9, 8-methyl-6-[5-methyl-6-[4-(4-methylpiperazin-1-yl)-1-piperidyl]-3-pyridyl]imidazo[1,2-a]pyridine]	medium & high (“medium & high” (Pe>=0.2; or Pe<0.2 and membrane retention>=20%))
17.7%	0.81 ×10⁻⁶ cm/s	217 nM	Cc1cc(-c2ccc(N3CCC(N4CCNCC4)CC3)nc2C(F)F)cn2ccnc12 [Example 10, 6-[2-(difluoromethyl)-6-(4-piperazin-1-yl-1-piperidyl)-3-pyridyl]-8-methyl-imidazo[1,2-a]pyridine]	medium & high (“medium & high” (Pe>=0.2; or Pe<0.2 and membrane retention>=20%))
9.47%	0.84 ×10⁻⁶ cm/s	111 nM	Cc1cn2cc(-c3ccc(N4CCC(N5CCNCC5)CC4)nc3C(F)F)cc(C)c2n1 [Example 11, 6-[2-(difluoromethyl)-6-(4-piperazin-1-yl-1-piperidyl)-3-pyridyl]-2,8-dimethyl-imidazo[1,2-a]pyridine]	medium & high (“medium & high” (Pe>=0.2; or Pe<0.2 and membrane retention>=20%))
7.03%	1 ×10⁻⁶ cm/s	145 nM	Cc1cn2cc(-c3ccc(N4CCC(N5CC(C)(N)C5)CC4)nc3C(F)F)cc(C)c2n1 [Example 12, 1-[1-[6-(difluoromethyl)-5-(2,8-dimethylimidazo[1,2-a]pyridin-6-yl)-2-pyridyl]-4-piperidyl]-3-methyl-azetidin-3-amine]	medium & high (“medium & high” (Pe>=0.2; or Pe<0.2 and membrane retention>=20%))
–	–	216 nM	CCc1nc(N2CCC(N3CC4(CNCCO4)C3)CC2)ccc1-c1cc(C)c2nccn2c1 [Example 14, 2-[1-[6-ethyl-5-(8-methylimidazo[1,2-a]pyridin-6-yl)-2-pyridyl]-4-piperidyl]-5-oxa-2,8-diazaspiro[3.5]nonane]	–
–	–	286 nM	CCc1nc(N2CCC(N3C[C@@H](N)[C@H](OC)C3)CC2)ccc1-c1cc(C)c2nccn2c1 [Example 15, (3R,4R)-1-[1-[6-ethyl-5-(8-methylimidazo[1,2-a]pyridin-6-yl)-2-pyridyl]-4-piperidyl]-4-methoxy-pyrrolidin-3-amine]	–
–	–	224 nM	CCc1nc(N2CCC(N3C[C@@H](N)[C@H](OC)C3)CC2)ccc1-c1cc(C)c2nc(C)cn2c1 [Example 17, (3R,4R)-1-[1-[5-(2,8-dimethylimidazo[1,2-a]pyridin-6-yl)-6-ethyl-2-pyridyl]-4-piperidyl]-4-methoxy-pyrrolidin-3-amine]	–
–	–	108 nM	CCc1nc(N2CCC(C)(N)CC2)ccc1-c1cc(C)c2nc(C)cn2c1 [Example 20, 1-[5-(2,8-dimethylimidazo[1,2-a]pyridin-6-yl)-6-ethyl-2-pyridyl]-4-methyl-piperidin-4-amine]	–
28%	0.73 ×10⁻⁶ cm/s	140 nM	CCc1nc(N2CCC(N3CCNCC3)CC2)ccc1-c1cc(C)c2nc(C)cn2c1 [Example 21, 6-[2-ethyl-6-(4-piperazin-1-yl-1-piperidyl)-3-pyridyl]-2,8-dimethyl-imidazo[1,2-a]pyridine]	medium & high (“medium & high” (Pe>=0.2; or Pe<0.2 and membrane retention>=20%))
26.45%	0.5 ×10⁻⁶ cm/s	132 nM	CCc1cc(-c2cc(C)c3nccn3c2)cnc1N1CCC2(CCNCC2)CC1 [Example 22, 3-[3-ethyl-5-(8-methylimidazo[1,2-a]pyridin-6-yl)-2-pyridyl]-3,9-diazaspiro[5.5]undecane]	medium & high (“medium & high” (Pe>=0.2; or Pe<0.2 and membrane retention>=20%))
–	–	92 nM	COc1nc(N2CCC(N3CCNCC3)CC2)ccc1-c1cc(C)c2nccn2c1 [Example 25, 6-[2-methoxy-6-(4-piperazin-1-yl-1-piperidyl)-3-pyridyl]-8-methyl-imidazo[1,2-a]pyridine]	–
